pIC50: −log10 of the molar value.
Legend:
Type in all cases: cell-based, human
[1] = system: KRAS G12C mutant NCI-H358 cells; assay: Cell proliferation inhibition experiment, 3D spheroid, CellTiter-Glo, NCI-H358; settings: Homo sapiens, NCI-H358, 120 h, NCI-H358 (KRAS G12C mutant) 3D spheroid, 5 days with compound, CellTiter-Glo; read-out: H358 IC50
Method in brief: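 Spheroids grown overnight from 800 H358 or 400 A549 cells were treated for 5 days with serially diluted compound (3.16-fold, 0.1% DMSO, 2% FBS). ATP-based luminescence gave IC50.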

[2] = system: KRAS G12C mutant MIA PaCa-2 cells; assay: Cell proliferation inhibition experiment, 3D spheroid, CellTiter-Glo, MIA PaCa-2; settings: Homo sapiens, MIA PaCa-2, 120 h, 3D cell model in 384-well spheroid plate, 5 days, CellTiter-Glo; read-out: MIA-PaCa2 IC50
Excerpt: Raw materials and instruments: MIA PaCa-2 purchased from ATCC; article number: CRL-1420; batch number: 63143594; DMEM purchased from Gibco; article number: 11995-065; batch number: 2186878; FBS purchased from Gibco; article number: 10099-141; batch number: 2109290CP; Horse Serum purchased from Gibco; article number: 16050-122; batch number: 1818976; PS purchased from Gibco; article number: 15140-122; batch number: 2145451; Trypsin-EDTA purchased from Gibco; article number: 25200-072; batch number: 2085552; CellTiter Glo working solution purchased from Promega; article number: G9683; batch number 398478; DMSO purchased from VWR AMRESCO; article number: 0231-500ML; batch number: 18C0656168; 384-well spheroid plate purchased from Corning; article number: 3830; batch number: 27519032; white opaque 384-well plate purchased from Corning; article number: 3570; batch number: 26819023; microplate reader purchased from PerkinElmer; model: Envision MLD2105-0020; equipment number 1050369.
MIA PaCa-2 is a KRAS G12C mutant human pancreatic cancer cell line, cultured in 10% FBS+2.5% Horse Serum DMEM+1% PS culture medium; cells at logarithmic growth stage were taken, digested with trypsin-EDTA, then collected and counted, and 200 MIA PaCa-2 were inoculated in a 384-well spheroid plate, respectively, and cultured overnight to establish a 3D cell model. A 3.16-fold gradient concentration stock solution of 1000× compound was prepared with DMSO, and diluted 100-fold to 10× compound stock solution with culture medium. On the second day after cell inoculation, 10× compound stock solution was added to each cell culture well, with a final concentration of 1× and a DMSO content of 0.1%. DMSO was used as experimental control (control), and culture medium was used as blank control (blank). After 5 days of compound cell culture, 30 μL of CellTiter-Glo working solution was added to each well, mixed well and incubated for 30 minutes. After standing at room temperature for 30 minutes, 40 μL of the mixed solution was transferred to a white opaque 384-well plate, and the luminescence chemiluminescence value was read with a microplate reader. The cell proliferation inhibition rate IR (%)=(RLU control -RLU compound)/(RLU control−RLU blank)×100% was calculated. The gradient dilution concentration of the compound and the corresponding cell proliferation inhibition rate were fitted by XLFit four-parameter method, and the IC50 value was calculated. The inhibitory activity of the compounds prepared in the above embodiments of the present disclosure on KRAS G12C mutant MIA PaCa-2 cells was 0.0001 μM to 0.5 μM; the inhibitory activity of some compounds on KRAS G12C mutant MIA PaCa-2 cells was 0.001 μM to 0.1 μM or 0.001 μM to 0.05 μM.

[3] = system: A549 cells (KRAS G12S mutant); assay: Cell proliferation inhibition experiment, 3D spheroid, CellTiter-Glo, A549; settings: Homo sapiens, A549, 120 h, A549 (KRAS G12S mutant) 3D spheroid, 5 days with compound, CellTiter-Glo; read-out: A549 IC50
Excerpt: Raw materials and instruments: NCI-H358 purchased from ATCC; article number: CRL-5807; batch number: 70010825; A549 purchased from ATCC; article number: CCL-185; batch number: 70007820; RPMI1640 purchased from Gibco; article number: 11875-093; batch number: 2152748; F-12K purchased from Gibco; article number: 21127-022; batch number: 2185853; FBS purchased from Gibco; article number: 10099-141; batch number: 2109290CP; PS purchased from Gibco; article number: 15140-122; batch number: 2145451; Trypsin-EDTApurchased from Gibco; article number: 25200-072; batch number: 2085552; CellTiter Glo working solution purchased from Promega; article number: G9683; batch number: 398478; DMSO purchased from VWR AMRESCO; article number: 0231-500ML; batch number: 18C0656168; 384-well spheroid plate purchased from Corning; article number: 3830; batch number: 27519032; white opaque 384-well plate purchased from Corning; article number: 3570; batch number: 26819023; microplate reader purchased from PerkinElmer; model: Envision MLD2105-0020; equipment number 1050369.
NCI-H358 is a KRAS G12C mutant human non-small cell lung cancer cell line, cultured in 10% FBS RPMI-1640+1% PS culture medium; and A549 is a KRAS G12S mutant human lung adenocarcinoma cell line, cultured in 10% FBS F-12K+1% PS culture medium. Cells at logarithmic growth stage were taken, digested with trypsin-EDTA, then collected and counted. H358 was adjusted to 1.8 E4 cells/mL with 2% FBS RPMI-1640 culture medium, and A549 was adjusted to 8.9 E3 cells/mL with 2% FBS F-12K culture medium; 800 (45 μL) H358 or 400 (45 μL) A549 were inoculated respectively in a 384-well spheroid plate and cultured overnight to establish a 3D cell model. A 3.16-fold gradient concentration stock solution of 1000× compound was prepared with DMSO, and diluted 100-fold to 10× compound stock solution with 2% FBS culture medium. On the second day after cell inoculation, 5 μL of 10× compound stock solution was added to each cell culture well, with a final concentration of 1× and a DMSO content of 0.1%. DMSO was used as experimental control (control), and 2% FBS culture medium was used as blank control (blank). After 5 days of compound cell culture, 25 μL of CellTiter-Glo working solution was added to each well, mixed well at 400 rpm and incubated for 30 minutes. After standing at room temperature for 30 minutes, 40 μL of the mixed solution was transferred to a white opaque 384-well plate, and the luminescence chemiluminescence value was read with a microplate reader. The cell proliferation inhibition rate IR (%)=(RLU control -RLU compound)/(RLU control -RLU blank) x100% was calculated. The gradient dilution concentration of the compound and the corresponding cell proliferation inhibition rate were fitted by Prism 6 four-parameter method, and the IC50 value was calculated. The inhibitory activity of the compounds prepared in the above embodiments of the present disclosure on KRAS G12C mutant NCI-H358 cells was 0.0001 μM to 0.5 μM; the inhibitory activity of some compounds on KRAS G12C mutant NCI-H358 cells was 0.001 μM to 0.1 μM or 0.001 μM to 0.05 μM.

pIC50 [1]	pIC50 [2]	pIC50 [3]	SMILES
6.80	6.44	< 4.70	C=CC(=O)N1CCN2C(=O)c3c(-c4ccnn4C(C)C)nc(-c4c(O)cccc4F)c(Cl)c3OC[C@H]2C1 [Z77, (6aR)-8-acryloyl-4-chloro-3-(2-fluoro-6-hydroxyphenyl)-1-(1-isopropyl-1H-pyrazol-5-yl)-6,6a,7,8,9,10-hexahydro-12H-pyrazino[2,1-c]pyrido[3,4-f][1,4]oxazepin-12-one]
7.52	7.11	5.61	C=CC(=O)N1CCN2C(=O)c3c(N[C@@H](C)c4ccccc4)nc(-c4c(O)cccc4F)c(Cl)c3OC[C@H]2C1 [Z29, (6aR)-8-acryloyl-4-chloro-3-(2-fluoro-6-hydroxyphenyl)-1-(((S)-1-phenylethyl)amino)-6,6a,7,8,9,10-hexahydro-12H-pyrazino[2,1-c]pyrido[3,4-f][1,4]oxazepin-12-one]
7.43	7.06	5.20	C=CC(=O)N1CCN2C(=O)c3c(Oc4cccc5c4OC(C)(C)C5)nc(-c4c(O)cccc4F)c(Cl)c3OC[C@H]2C1 [Z42, (6aR)-8-acryloyl-4-chloro-1-((2,2-dimethyl-2,3-dihydrobenzofuran-7-yl)oxy)-3-(2-fluoro-6-hydroxyphenyl)-6,6a,7,8,9,10-hexahydro-12H-pyrazino[2,1-c]pyrido[3,4-f][1,4]oxazepin-12-one]
6.91	6.77	< 4.52	C=CC(=O)N1CCN2C(=O)c3c(-c4ccncc4)nc(-c4c(O)cccc4F)c(Cl)c3OC[C@H]2C1 [Z54]

Further lines, the compound ahead of its results:

SMILES	pIC50 [1]	pIC50 [2]	pIC50 [3]
C=CC(=O)N1CCN2C(=O)c3c(N4CCN(C)CC45CC5)nc(-c4c(O)cccc4F)c(Cl)c3OC[C@H]2C1 [Z57, (6aR)-8-acryloyl-4-chloro-3-(2-fluoro-6-hydroxyphenyl)-1-(7-methyl-4,7-diazaspiro[2.5]octan-4-yl)-6,6a,7,8,9,10-hexahydro-12H-pyrazino[2,1-c]pyrido[3,4-f][1,4]oxazepin-12-one]	6.87	6.93	< 4.52
C=CC(=O)N1CCN2C(=O)c3c(N4C[C@H]5CC[C@@H](C4)O5)nc(-c4c(O)cccc4F)c(Cl)c3OC[C@H]2C1 [Z62, (6aR)-8-acryloyl-4-chloro-1-((1R,5S)-8-oxa-3-azabicyclo[3.2.1]octan-3-yl)-3-(2-fluoro-6-hydroxyphenyl)-6,6a,7,8,9,10-hexahydro-12H-pyrazino[2,1-c]pyrido[3,4-f][1,4]oxazepin-12-one]	7.64	7.54	< 5.00
C=CC(=O)N1CCN2C(=O)c3c(O[C@H]4CCN(C)C4)nc(-c4c(O)cccc4F)c(Cl)c3OC[C@H]2C1 [Z65, (6aR)-8-acryloyl-4-chloro-3-(2-fluoro-6-hydroxyphenyl)-1-(((S)-1-methylpyrrolidin-3-yl)oxy)-6,6a,7,8,9,10-hexahydro-12H-pyrazino[2,1-c]pyrido[3,4-f][1,4]oxazepin-12-one]	7.29	7.42	< 4.52
C=CC(=O)N1CCN2C(=O)c3c(N4CCCC45CCOC5)nc(-c4c(O)cccc4F)c(Cl)c3OC[C@H]2C1 (stereo partly drawn) [Z58, (6aR)-8-acryloyl-4-chloro-3-(2-fluoro-6-hydroxyphenyl)-1-(7-oxa-1-azaspiro[4.4]nonan-1-yl)-6,6a,7,8,9,10-hexahydro-12H-pyrazino[2,1-c]pyrido[3,4-f][1,4]oxazepin-12-one]	6.84	6.63	< 5.30
C=CC(=O)N1CCN2C(=O)c3c(N4CCOCC4(C)C)nc(-c4c(O)cccc4F)c(Cl)c3OC[C@H]2C1 [Z70, (6aR)-8-acryloyl-4-chloro-1-(3,3-dimethylmorpholino)-3-(2-fluoro-6-hydroxyphenyl)-6,6a,7,8,9,10-hexahydro-12H-pyrazino[2,1-c]pyrido[3,4-f][1,4]oxazepin-12-one]	7.60	7.28	< 5.00
C=CC(=O)N1CCN2C(=O)c3c(O[C@@H]4CCN(C)C4)nc(-c4c(O)cccc4F)c(Cl)c3OC[C@H]2C1 [Z64, (6aR)-8-acryloyl-4-chloro-3-(2-fluoro-6-hydroxyphenyl)-1-(((R)-1-methylpyrrolidin-3-yl)oxy)-6,6a,7,8,9,10-hexahydro-12H-pyrazino[2,1-c]pyrido[3,4-f][1,4]oxazepin-12-one]	6.54	6.57	< 4.52
C=CC(=O)N1CCN2C(=O)c3c(N4CCC5(CCCC5)C4)nc(-c4c(O)cccc4F)c(Cl)c3OC[C@H]2C1 [Z34, (6aR)-8-acryloyl-4-chloro-3-(2-fluoro-6-hydroxyphenyl)-1-(2-azaspiro[4.4]nonan-2-yl)-6,6a,7,8,9,10-hexahydro-12H-pyrazino[2,1-c]pyrido[3,4-f][1,4]oxazepin-12-one]	7.49	7.09	5.31
C=CC(=O)N1CCN2C(=O)c3c(N4CC5CN(C)CC5C4)nc(-c4c(O)cccc4F)c(Cl)c3OC[C@H]2C1 (stereo partly drawn) [Z60, (6aR)-8-acryloyl-4-chloro-3-(2-fluoro-6-hydroxyphenyl)-1-(5-methylhexahydropyrrolo[3,4-c]pyrrol-2 (1H)-yl)-6,6a,7,8,9,10-hexahydro-12H-pyrazino[2,1-c]pyrido[3,4-f][1,4]oxazepin-12-one]	6.90	7.03	< 4.52
